Assay results: the supplement of paper PMC10307832

Assays:
Assay in all cases: relative viability (nuclei count vs DMSO), 5 days (fraction); higher = more cells survive
NCI-H1993 = tested on: NCI-H1993
Summary of the method: (§1)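 Medians of duplicate plates are given as relative viability. That measure is the nuclei count in treated wells divided by the count in vehicle wells. Counts were taken on 4× images of lung cancer cell lines in 1536-well plates, 5 days after pin-tool dosing the day after seeding with one drug alone or a fixed anchor-drug dose plus five library-drug doses (not always all listed) in √10 steps.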

NCI-H1915 = tested on: NCI-H1915
Summary of the method: as §1

A-427 = tested on: A-427
Summary of the method: as §1

SK-MES-1 = tested on: SK-MES-1
Summary of the method: as §1

BEN = tested on: BEN
Summary of the method: as §1

NCI-H460 = tested on: NCI-H460
Summary of the method: as §1

NCI-H2405 = tested on: NCI-H2405
Summary of the method: as §1

HCC-366 = tested on: HCC-366
Summary of the method: as §1

HOP-62 = tested on: HOP-62
Summary of the method: as §1

201T = tested on: 201T
Summary of the method: as §1

LK-2 = tested on: LK-2
Summary of the method: as §1

COR-L 105 = tested on: COR-L 105
Summary of the method: as §1

EMC-BAC-2 = tested on: EMC-BAC-2
Summary of the method: as §1

NCI-H661 = tested on: NCI-H661
Summary of the method: as §1

HCC-15 = tested on: HCC-15
Summary of the method: as §1

EKVX = tested on: EKVX
Summary of the method: as §1

NCI-H1734 = tested on: NCI-H1734
Summary of the method: as §1

NCI-H647 = tested on: NCI-H647
Summary of the method: as §1

HCC-78 = tested on: HCC-78
Summary of the method: as §1

NCI-H522 = tested on: NCI-H522
Summary of the method: as §1

PC-14 = tested on: PC-14
Summary of the method: as §1

COR-L23 = tested on: COR-L23
Summary of the method: as §1

`CN1CCN(CCOc2cc(OC3CCOCC3)c3c(Nc4c(Cl)ccc5c4OCO5)ncnc3c2)CC1` [Saracatinib] + CC(=O)Nc1cccc(-n2c(=O)n(C3CC3)c(=O)c3c(Nc4ccc(I)cc4F)n(C)c(=O)c(C)c32)c1 [Trametinib] (partner 0.02 µM) gave a relative viability (NCI-H1993; first compound 0.02 µM) of 0.539, a relative viability (NCI-H1993; first compound 0.2 µM) of 0.518 and a relative viability (NCI-H1993; first compound 0.6325 µM) of 0.528. For the same molecule, the relative viability (NCI-H1993; first compound 2 µM) was 0.5, the relative viability (NCI-H1915; first compound 0.02 µM) was 0.305 and the relative viability (NCI-H1915; first compound 0.2 µM) was 0.292. For the same molecule, the relative viability (NCI-H1915; first compound 0.6325 µM) was 0.251, the relative viability (NCI-H1915; first compound 2 µM) was 0.265 and the relative viability (A-427; first compound 0.02 µM) was 0.764. The relative viability (A-427; first compound 0.2 µM) was 0.738, the relative viability (A-427; first compound 0.6325 µM) was 0.911 and the relative viability (A-427; first compound 2 µM) was 0.672. The relative viability (SK-MES-1; first compound 0.02 µM) was 0.548, the relative viability (SK-MES-1; first compound 0.2 µM) was 0.6 and the relative viability (SK-MES-1; first compound 0.6325 µM) was 0.347. It also gave a relative viability (SK-MES-1; first compound 2 µM) of 0.256, a relative viability (BEN; first compound 0.02 µM) of 1.04 and a relative viability (BEN; first compound 0.2 µM) of 1.15. The relative viability (BEN; first compound 0.6325 µM) was 1.17, the relative viability (BEN; first compound 2 µM) was 1.13 and the relative viability (NCI-H460; first compound 0.02 µM) was 0.215. It also gave a relative viability (NCI-H460; first compound 0.2 µM) of 0.139, a relative viability (NCI-H460; first compound 0.6325 µM) of 0.129 and a relative viability (NCI-H460; first compound 2 µM) of 0.056. For the same molecule, the relative viability (NCI-H2405; first compound 0.02 µM) was 0.646, the relative viability (NCI-H2405; first compound 0.2 µM) was 0.616 and the relative viability (NCI-H2405; first compound 0.6325 µM) was 0.444. For the same molecule, the relative viability (NCI-H2405; first compound 2 µM) was 0.406, the relative viability (HCC-366; first compound 0.02 µM) was 0.337 and the relative viability (HCC-366; first compound 0.2 µM) was 0.128. It also gave a relative viability (HCC-366; first compound 0.6325 µM) of 0.216, a relative viability (HCC-366; first compound 2 µM) of 0.202 and a relative viability (HOP-62; first compound 0.02 µM) of 0.412. It also gave a relative viability (HOP-62; first compound 0.2 µM) of 0.455, a relative viability (HOP-62; first compound 0.6325 µM) of 0.441 and a relative viability (HOP-62; first compound 2 µM) of 0.398. It also gave a relative viability (201T; first compound 0.02 µM) of 0.726, a relative viability (201T; first compound 0.2 µM) of 0.685 and a relative viability (201T; first compound 0.6325 µM) of 0.65. It also gave a relative viability (201T; first compound 2 µM) of 0.615, a relative viability (LK-2; first compound 0.02 µM) of 0.725 and a relative viability (LK-2; first compound 0.2 µM) of 0.736. The relative viability (LK-2; first compound 0.6325 µM) was 0.722, the relative viability (LK-2; first compound 2 µM) was 0.614 and the relative viability (COR-L 105; first compound 0.02 µM) was 0.486. The relative viability (COR-L 105; first compound 0.2 µM) was 0.437, the relative viability (COR-L 105; first compound 0.6325 µM) was 0.37 and the relative viability (COR-L 105; first compound 2 µM) was 0.317. For the same molecule, the relative viability (EMC-BAC-2; first compound 0.02 µM) was 0.896, the relative viability (EMC-BAC-2; first compound 0.2 µM) was 0.97 and the relative viability (EMC-BAC-2; first compound 0.6325 µM) was 1.11. For the same molecule, the relative viability (EMC-BAC-2; first compound 2 µM) was 0.901, the relative viability (NCI-H661; first compound 0.02 µM) was 0.568 and the relative viability (NCI-H661; first compound 0.2 µM) was 0.572. The relative viability (NCI-H661; first compound 0.6325 µM) was 0.6, the relative viability (NCI-H661; first compound 2 µM) was 0.362 and the relative viability (HCC-15; first compound 0.02 µM) was 0.44. The relative viability (HCC-15; first compound 0.2 µM) was 0.371, the relative viability (HCC-15; first compound 0.6325 µM) was 0.455 and the relative viability (HCC-15; first compound 2 µM) was 0.388. It also gave a relative viability (EKVX; first compound 0.02 µM) of 0.274, a relative viability (EKVX; first compound 0.6325 µM) of 0.37 and a relative viability (EKVX; first compound 2 µM) of 0.163. It also gave a relative viability (NCI-H1734; first compound 0.02 µM) of 0.7, a relative viability (NCI-H1734; first compound 0.6325 µM) of 0.645 and a relative viability (NCI-H1734; first compound 2 µM) of 0.611. It also gave a relative viability (NCI-H647; first compound 0.02 µM) of 0.449, a relative viability (NCI-H647; first compound 0.2 µM) of 0.381 and a relative viability (NCI-H647; first compound 0.6325 µM) of 0.39. For the same molecule, the relative viability (NCI-H647; first compound 2 µM) was 0.255, the relative viability (HCC-78; first compound 0.02 µM) was 0.569 and the relative viability (HCC-78; first compound 0.6325 µM) was 0.869. The relative viability (HCC-78; first compound 2 µM) was 0.523, the relative viability (NCI-H522; first compound 0.02 µM) was 0.708 and the relative viability (NCI-H522; first compound 0.2 µM) was 0.745. For the same molecule, the relative viability (NCI-H522; first compound 0.6325 µM) was 0.788, the relative viability (NCI-H522; first compound 2 µM) was 0.536 and the relative viability (PC-14; first compound 0.02 µM) was 0.605. The relative viability (PC-14; first compound 0.2 µM) was 0.275, the relative viability (PC-14; first compound 0.6325 µM) was 0.0993 and the relative viability (PC-14; first compound 2 µM) was 0.0574. The relative viability (COR-L23; first compound 0.02 µM) was 0.58, the relative viability (COR-L23; first compound 0.2 µM) was 0.53 and the relative viability (COR-L23; first compound 0.6325 µM) was 0.574. For the same molecule, the relative viability (COR-L23; first compound 2 µM) was 0.559.
